Source: patent US11541028B2, “Peptide pharmaceuticals for treatment of NASH and other disorders” (Mederis Diabetes LLC, priority 2018, dated 2023)
Bridge positions count the residues as written; N and C are the ends. Square brackets hold non-standard residues; d marks the D form. Peptide text beside a SMILES is read from it. * marks the point of attachment. Melibiouronoyl(1β-O-dodecyl) = CCCCCCCCCCCCO[C@@H]1O[C@H](CO[C@H]2O[C@H](C(=O)*)[C@H](O)[C@H](O)[C@H]2O)[C@@H](O)[C@H](O)[C@H]1O; X1 = CCCCCCCCCCCCCCCCO[C@@H]1O[C@H](CO[C@H]2O[C@H](C(=O)*)[C@H](O)[C@H](O)[C@H]2O)[C@@H](O)[C@H](O)[C@H]1O; X2 = CCCCCCCCCCCCCCO[C@@H]1O[C@H](CO[C@H]2O[C@H](C(=O)*)[C@H](O)[C@H](O)[C@H]2O)[C@@H](O)[C@H](O)[C@H]1O; Aib = CC(C)(N)C(=O)O

Legend:
[1] = target: T1, human GLP-1 receptor (Homo sapiens, UniProt P43220); experiment: DiscoveRx LeadHunter cellular assay, cAMP stimulation, GLP-1 receptor in CHO cells; format: cell-based; conditions: human GLP-1 receptor in CHO cells (DiscoveRx); read-out: EC50 cAMP GLP-1 R
T1 construct: host or cells: CHO cells

[2] = target: T2, human glucagon receptor (Homo sapiens, UniProt P47871); experiment: DiscoveRx LeadHunter cellular assay, cAMP stimulation, glucagon receptor in CHO cells; format: cell-based
T2 construct: host or cells: CHO cells
T2 sequence (P47871 26-477): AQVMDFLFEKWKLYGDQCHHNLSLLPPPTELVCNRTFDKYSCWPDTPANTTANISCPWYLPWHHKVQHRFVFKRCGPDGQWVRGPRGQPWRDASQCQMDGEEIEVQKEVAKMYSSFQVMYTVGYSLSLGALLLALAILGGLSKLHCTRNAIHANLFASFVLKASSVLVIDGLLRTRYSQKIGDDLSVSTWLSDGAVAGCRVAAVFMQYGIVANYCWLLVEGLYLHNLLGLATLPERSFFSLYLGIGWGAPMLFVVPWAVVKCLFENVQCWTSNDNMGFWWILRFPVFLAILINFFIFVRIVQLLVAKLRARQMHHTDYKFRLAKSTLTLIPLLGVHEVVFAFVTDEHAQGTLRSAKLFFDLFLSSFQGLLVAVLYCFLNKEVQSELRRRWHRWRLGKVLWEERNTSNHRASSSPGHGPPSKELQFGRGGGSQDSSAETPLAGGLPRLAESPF

T1 sequence (P43220 24-463): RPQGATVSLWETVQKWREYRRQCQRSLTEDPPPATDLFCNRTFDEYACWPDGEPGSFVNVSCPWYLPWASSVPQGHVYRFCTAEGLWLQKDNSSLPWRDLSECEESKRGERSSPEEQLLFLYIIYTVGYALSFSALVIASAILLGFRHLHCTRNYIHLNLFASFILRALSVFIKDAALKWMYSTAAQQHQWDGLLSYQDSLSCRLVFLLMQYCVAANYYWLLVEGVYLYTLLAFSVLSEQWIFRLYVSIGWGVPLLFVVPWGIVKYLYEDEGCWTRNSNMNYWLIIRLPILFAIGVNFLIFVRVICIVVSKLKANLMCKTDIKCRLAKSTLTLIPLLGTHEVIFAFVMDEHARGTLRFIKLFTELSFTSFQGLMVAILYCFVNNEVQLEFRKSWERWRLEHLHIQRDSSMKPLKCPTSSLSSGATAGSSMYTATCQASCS

| Structure (SMILES) | EC50 [1] | EC50 [2] |
| --- | --- | --- |
| CCCCCCCCCCCCO[C@@H]1O[C@H](CO[C@H]2O[C@H](C(=O)NCCCC[C@@H]3NC(=O)[C@@H](NC(=O)[C@H](CC(=O)O)NC(=O)[C@H](CC(C)C)NC(=O)[C@H](Cc4ccc(O)cc4)NC(=O)[C@H](CCCCN)NC(=O)[C@H](CO)NC(=O)[C@H](Cc4ccc(O)cc4)NC(=O)[C@H](CC(=O)O)NC(=O)[C@H](CO)NC(=O)[C@@H](NC(=O)[C@H](Cc4ccccc4)NC(=O)[C@@H](NC(=O)CNC(=O)[C@H](CCC(N)=O)NC(=O)C(C)(C)NC(=O)[C@@H](N)Cc4c[nH]cn4)[C@@H](C)O)[C@@H](C)O)CCC(=O)NCCCC[C@@H](C(=O)N[C@@H](CCC(=O)O)C(=O)N[C@@H](Cc4ccccc4)C(=O)N[C@H](C(=O)N[C@@H](CCC(N)=O)C(=O)N[C@@H](Cc4c[nH]c5ccccc45)C(=O)N[C@@H](CC(C)C)C(=O)N[C@@H](CC(C)C)C(=O)N[C@@H](CCC(N)=O)C(=O)N[C@H](C(=O)O)[C@@H](C)O)[C@@H](C)CC)NC(=O)[C@H](C)NC(=O)[C@H](C)NC3=O)[C@H](O)[C@H](O)[C@H]2O)[C@@H](O)[C@H](O)[C@H]1O [EU-A1590] | 0.094 nM | 0.343 nM |
| CCCCCCCCCCCCO[C@@H]1O[C@H](CO[C@H]2O[C@H](C(=O)NCCCC[C@@H]3NC(=O)[C@@H](NC(=O)[C@H](CC(=O)O)NC(=O)[C@H](CC(C)C)NC(=O)[C@H](Cc4ccc(O)cc4)NC(=O)[C@H](CCCCN)NC(=O)[C@H](CO)NC(=O)[C@H](Cc4ccc(O)cc4)NC(=O)[C@H](CC(=O)O)NC(=O)[C@H](CO)NC(=O)[C@@H](NC(=O)[C@H](Cc4ccccc4)NC(=O)[C@@H](NC(=O)CNC(=O)[C@H](CCC(N)=O)NC(=O)C(C)(C)NC(=O)[C@@H](N)Cc4c[nH]cn4)[C@@H](C)O)[C@@H](C)O)CCC(=O)NCCCC[C@@H](C(=O)N[C@@H](CCC(=O)O)C(=O)N[C@@H](Cc4ccccc4)C(=O)N[C@H](C(=O)N[C@@H](CCC(=O)O)C(=O)N[C@@H](Cc4c[nH]c5ccccc45)C(=O)N[C@@H](CC(C)C)C(=O)N[C@@H](CC(C)C)C(=O)N[C@@H](CCC(N)=O)C(=O)N[C@H](C(N)=O)[C@@H](C)O)[C@@H](C)CC)NC(=O)[C@H](C)NC(=O)[C@H](C)NC3=O)[C@H](O)[C@H](O)[C@H]2O)[C@@H](O)[C@H](O)[C@H]1O [EU-A1591] (H-H[Aib]QGTFTSDYSKYLDEK(Melibiouronoyl(1β-O-dodecyl))AAKEFIEWLLQT-NH2; lactam 16-20; N-terminus assumed) | 0.073 nM | 0.286 nM |
| CCCCCCCCCCCCO[C@@H]1O[C@H](CO[C@H]2O[C@H](C(=O)NCCCC[C@@H]3NC(=O)[C@@H](NC(=O)[C@H](CC(=O)O)NC(=O)[C@H](CC(C)C)NC(=O)[C@H](Cc4ccc(O)cc4)NC(=O)[C@H](CCCCN)NC(=O)[C@H](CO)NC(=O)[C@H](Cc4ccc(O)cc4)NC(=O)[C@H](CC(=O)O)NC(=O)[C@H](CO)NC(=O)[C@@H](NC(=O)[C@H](Cc4ccccc4)NC(=O)[C@@H](NC(=O)CNC(=O)[C@H](CCC(N)=O)NC(=O)C(C)(C)NC(=O)[C@@H](N)Cc4c[nH]cn4)[C@@H](C)O)[C@@H](C)O)CCC(=O)NCCCC[C@@H](C(=O)N[C@@H](CCC(=O)O)C(=O)N[C@@H](Cc4ccccc4)C(=O)N[C@H](C(=O)N[C@@H](CCC(=O)O)C(=O)N[C@@H](Cc4c[nH]c5ccccc45)C(=O)N[C@@H](CC(C)C)C(=O)N[C@@H](CC(C)C)C(=O)N[C@@H](CCC(N)=O)C(=O)N[C@H](C(=O)O)[C@@H](C)O)[C@@H](C)CC)NC(=O)[C@H](C)NC(=O)[C@H](C)NC3=O)[C@H](O)[C@H](O)[C@H]2O)[C@@H](O)[C@H](O)[C@H]1O [EU-A1592] (H-H[Aib]QGTFTSDYSKYLDEK(Melibiouronoyl(1β-O-dodecyl))AAKEFIEWLLQT-OH; lactam 16-20; N-terminus assumed) | 0.25 nM | 0.78 nM |
| CCCCCCCCCCCCCCCCO[C@@H]1O[C@H](CO[C@H]2O[C@H](C(=O)NCCCC[C@H](NC(=O)[C@H](CC(=O)O)NC(=O)[C@H](CO)NC(=O)[C@@H](NC(=O)[C@H](Cc3ccccc3)NC(=O)[C@@H](NC(=O)CNC(=O)[C@H](CCC(N)=O)NC(=O)C(C)(C)NC(=O)[C@@H](N)Cc3c[nH]cn3)[C@@H](C)O)[C@@H](C)O)C(=O)N[C@@H](CO)C(=O)N[C@@H](CCCCN)C(=O)N[C@@H](Cc3ccc(O)cc3)C(=O)N[C@@H](CC(C)C)C(=O)N[C@@H](CC(=O)O)C(=O)N[C@H]3CCC(=O)NCCCC[C@@H](C(=O)N[C@@H](CCC(=O)O)C(=O)N[C@@H](Cc4ccccc4)C(=O)N[C@H](C(=O)N[C@@H](CCC(N)=O)C(=O)N[C@@H](Cc4c[nH]c5ccccc45)C(=O)N[C@@H](CC(C)C)C(=O)N[C@@H](CC(C)C)C(=O)N[C@@H](CCC(N)=O)C(=O)N[C@H](C(N)=O)[C@@H](C)O)[C@@H](C)CC)NC(=O)[C@H](C)NC(=O)[C@H](C)NC(=O)[C@H](CCC(N)=O)NC3=O)[C@H](O)[C@H](O)[C@H]2O)[C@@H](O)[C@H](O)[C@H]1O [EU-A1596] (H-H[Aib]QGTFTSDK(X1)SKYLDEQAAKEFIQWLLQT-NH2; lactam 16-20; N-terminus assumed) | 0.493 nM | 1.23 nM |

Stronger by EC50 [1], values ahead:

| EC50 [1] | EC50 [2] | Structure (SMILES) |
| --- | --- | --- |
| 0.029 nM | 0.107 nM | CCCCCCCCCCCCO[C@@H]1O[C@H](CO[C@H]2O[C@H](C(=O)NCCCC[C@@H]3NC(=O)[C@@H](NC(=O)[C@H](CC(=O)O)NC(=O)[C@H](CC(C)C)NC(=O)[C@H](Cc4ccc(O)cc4)NC(=O)[C@H](CCCCN)NC(=O)[C@H](CO)NC(=O)[C@H](Cc4ccc(O)cc4)NC(=O)[C@H](CC(=O)O)NC(=O)[C@H](CO)NC(=O)[C@@H](NC(=O)[C@H](Cc4ccccc4)NC(=O)[C@@H](NC(=O)CNC(=O)[C@H](CCC(N)=O)NC(=O)C(C)(C)NC(=O)[C@@H](N)Cc4c[nH]cn4)[C@@H](C)O)[C@@H](C)O)CCC(=O)NCCCC[C@@H](C(=O)N[C@@H](CCC(=O)O)C(=O)N[C@@H](Cc4ccccc4)C(=O)N[C@H](C(=O)N[C@@H](CCC(N)=O)C(=O)N[C@@H](Cc4c[nH]c5ccccc45)C(=O)N[C@@H](CC(C)C)C(=O)N[C@@H](CC(C)C)C(=O)N[C@@H](CCC(N)=O)C(=O)N[C@H](C(N)=O)[C@@H](C)O)[C@@H](C)CC)NC(=O)[C@H](C)NC(=O)[C@H](C)NC3=O)[C@H](O)[C@H](O)[C@H]2O)[C@@H](O)[C@H](O)[C@H]1O [EU-A1586] |
| 0.011 nM | 0.068 nM | CCCCCCCCCCCCO[C@@H]1O[C@H](CO[C@H]2O[C@H](C(=O)NCCCC[C@H](NC(=O)[C@H](CC(=O)O)NC(=O)[C@H](CO)NC(=O)[C@@H](NC(=O)[C@H](Cc3ccccc3)NC(=O)[C@@H](NC(=O)CNC(=O)[C@H](CCC(N)=O)NC(=O)C(C)(C)NC(=O)[C@@H](N)Cc3c[nH]cn3)[C@@H](C)O)[C@@H](C)O)C(=O)N[C@@H](CO)C(=O)N[C@@H](CCCCN)C(=O)N[C@@H](Cc3ccc(O)cc3)C(=O)N[C@@H](CC(C)C)C(=O)N[C@@H](CC(=O)O)C(=O)N[C@H]3CCC(=O)NCCCC[C@@H](C(=O)N[C@@H](CCC(=O)O)C(=O)N[C@@H](Cc4ccccc4)C(=O)N[C@H](C(=O)N[C@@H](CCC(N)=O)C(=O)N[C@@H](Cc4c[nH]c5ccccc45)C(=O)N[C@@H](CC(C)C)C(=O)N[C@@H](CC(C)C)C(=O)N[C@@H](CCC(N)=O)C(=O)N[C@H](C(N)=O)[C@@H](C)O)[C@@H](C)CC)NC(=O)[C@H](C)NC(=O)[C@H](C)NC(=O)[C@H](CCC(N)=O)NC3=O)[C@H](O)[C@H](O)[C@H]2O)[C@@H](O)[C@H](O)[C@H]1O [EU-A1594] (H-H[Aib]QGTFTSDK(Melibiouronoyl(1β-O-dodecyl))SKYLDEQAAKEFIQWLLQT-NH2; lactam 16-20) |
| 0.021 nM | 0.113 nM | CCCCCCCCCCCCCCO[C@@H]1O[C@H](CO[C@H]2O[C@H](C(=O)NCCCC[C@H](NC(=O)[C@H](CC(=O)O)NC(=O)[C@H](CO)NC(=O)[C@@H](NC(=O)[C@H](Cc3ccccc3)NC(=O)[C@@H](NC(=O)CNC(=O)[C@H](CCC(N)=O)NC(=O)C(C)(C)NC(=O)[C@@H](N)Cc3c[nH]cn3)[C@@H](C)O)[C@@H](C)O)C(=O)N[C@@H](CO)C(=O)N[C@@H](CCCCN)C(=O)N[C@@H](Cc3ccc(O)cc3)C(=O)N[C@@H](CC(C)C)C(=O)N[C@@H](CC(=O)O)C(=O)N[C@H]3CCC(=O)NCCCC[C@@H](C(=O)N[C@@H](CCC(=O)O)C(=O)N[C@@H](Cc4ccccc4)C(=O)N[C@H](C(=O)N[C@@H](CCC(N)=O)C(=O)N[C@@H](Cc4c[nH]c5ccccc45)C(=O)N[C@@H](CC(C)C)C(=O)N[C@@H](CC(C)C)C(=O)N[C@@H](CCC(N)=O)C(=O)N[C@H](C(N)=O)[C@@H](C)O)[C@@H](C)CC)NC(=O)[C@H](C)NC(=O)[C@H](C)NC(=O)[C@H](CCC(N)=O)NC3=O)[C@H](O)[C@H](O)[C@H]2O)[C@@H](O)[C@H](O)[C@H]1O [EU-A1595] (H-H[Aib]QGTFTSDK(X2)SKYLDEQAAKEFIQWLLQT-NH2; lactam 16-20; N-terminus assumed) |
| 0.026 nM | 0.199 nM | CCCCCCCCCCCCO[C@@H]1O[C@H](CO[C@H]2O[C@H](C(=O)NCCCC[C@H](NC(=O)[C@H](CC(=O)O)NC(=O)[C@H](CO)NC(=O)[C@@H](NC(=O)[C@H](Cc3ccccc3)NC(=O)[C@@H](NC(=O)CNC(=O)[C@H](CCC(N)=O)NC(=O)C(C)(C)NC(=O)[C@@H](N)Cc3c[nH]cn3)[C@@H](C)O)[C@@H](C)O)C(=O)N[C@@H](CO)C(=O)N[C@@H](CCCCN)C(=O)N[C@@H](Cc3ccc(O)cc3)C(=O)N[C@@H](CC(C)C)C(=O)N[C@@H](CC(=O)O)C(=O)N[C@H]3CCC(=O)NCCCC[C@@H](C(=O)N[C@@H](CCC(=O)O)C(=O)N[C@@H](Cc4ccccc4)C(=O)N[C@H](C(=O)N[C@@H](CCC(=O)O)C(=O)N[C@@H](Cc4c[nH]c5ccccc45)C(=O)N[C@@H](CC(C)C)C(=O)N[C@@H](CC(C)C)C(=O)N[C@@H](CCC(N)=O)C(=O)N[C@H](C(N)=O)[C@@H](C)O)[C@@H](C)CC)NC(=O)[C@H](C)NC(=O)[C@H](C)NC(=O)[C@H](CCC(N)=O)NC3=O)[C@H](O)[C@H](O)[C@H]2O)[C@@H](O)[C@H](O)[C@H]1O [EU-A1598] (H-H[Aib]QGTFTSDK(Melibiouronoyl(1β-O-dodecyl))SKYLDEQAAKEFIEWLLQT-NH2; lactam 16-20; N-terminus assumed) |
